Measured values published in patent US20220401514A1, “ANTIMICROBIAL, BACTERIOPHAGE-DERIVED POLYPEPTIDES AND THEIR USE AGAINST GRAM-NEGATIVE AND ACID-FAST BACTERIA” (CONTRAFECT CORPORATION, priority 2019, published 2022).

Assays:
Type in all cases: cell-based
[1] = tested on: Acinetobacter baumannii isolates; assay: MIC against CDC Acinetobacter baumannii panel (n = 41)
[2] = tested on: carbapenamase-producing Enterobacteriaceae isolates; assay: MIC against CDC Carbapenamase Enterobacteriaceae panel (n = 53)
Excerpt: Additionally, a third panel of 53 carbapenamase-producing Enterobacteriaceae isolates were selected to represent a diversity of species and carbapenemases. See wwwn.cdc.gov/ARIsolateBank/Panel/PanelDetail?ID=8.

[3] = tested on: isolates identified as having novel antibiotic resistance; assay: MIC against CDC novel antibiotic resistance panel (n = 11)
Experimental: MIC values were determined using the methodology described above, i.e., the standard broth microdilution reference method defined by CLSI.
See wwwn.cdc.gov/ARIsolateBank/Panel/PanelDetail?ID=10.

Salmonella typhimurium = assay: MIC against Salmonella typhimurium; conditions: Salmonella typhimurium
[4] = Carbapenamase Enterobacteriaceae panel
[5] = novel antibiotic resistance panel

Q: What does the source list for “MRLKMARRRYRLPRRRSRRLFSRTALRMHPRNRLRRIMRGGIRF [Chp2]”?
A: MIC50 ([1]; Actinobacter baumannii panel): 0.5 µg/mL; MIC90 ([1]; Actinobacter baumannii panel): 1 µg/mL; MIC ([1]; CDC Antibiotic-Resistant Bank No. 0273): 1 µg/mL; MIC ([1]; CDC Antibiotic-Resistant Bank No. 0274): 0.5 µg/mL; MIC ([1]; CDC Antibiotic-Resistant Bank No. 0275): 0.5 µg/mL; MIC ([1]; CDC Antibiotic-Resistant Bank No. 0276): 0.5 µg/mL; MIC ([1]; CDC Antibiotic-Resistant Bank No. 0277): 0.5 µg/mL; MIC ([1]; CDC Antibiotic-Resistant Bank No. 0278): 1 µg/mL; MIC ([1]; CDC Antibiotic-Resistant Bank No. 0279): 1 µg/mL; MIC ([1]; CDC Antibiotic-Resistant Bank No. 0280): 1 µg/mL; MIC ([1]; CDC Antibiotic-Resistant Bank No. 0281): 1 µg/mL; MIC ([1]; CDC Antibiotic-Resistant Bank No. 0282): 0.5 µg/mL; MIC ([1]; CDC Antibiotic-Resistant Bank No. 0283): 1 µg/mL; MIC ([1]; CDC Antibiotic-Resistant Bank No. 0284): 0.5 µg/mL; MIC ([1]; CDC Antibiotic-Resistant Bank No. 0285): 0.5 µg/mL; MIC ([1]; CDC Antibiotic-Resistant Bank No. 0286): 1 µg/mL; MIC ([1]; CDC Antibiotic-Resistant Bank No. 0287): 0.5 µg/mL; MIC ([1]; CDC Antibiotic-Resistant Bank No. 0288): 0.25 µg/mL; MIC ([1]; CDC Antibiotic-Resistant Bank No. 0289): 0.5 µg/mL; MIC ([1]; CDC Antibiotic-Resistant Bank No. 0290): 0.5 µg/mL; MIC ([1]; CDC Antibiotic-Resistant Bank No. 0291): 0.5 µg/mL; MIC ([1]; CDC Antibiotic-Resistant Bank No. 0292): 0.5 µg/mL; MIC ([1]; CDC Antibiotic-Resistant Bank No. 0293): 0.5 µg/mL; MIC ([1]; CDC Antibiotic-Resistant Bank No. 0294): 0.5 µg/mL; MIC ([1]; CDC Antibiotic-Resistant Bank No. 0295): 1 µg/mL; MIC ([1]; CDC Antibiotic-Resistant Bank No. 0296): 0.5 µg/mL; MIC ([1]; CDC Antibiotic-Resistant Bank No. 0297): 1 µg/mL; MIC ([1]; CDC Antibiotic-Resistant Bank No. 0298): 0.5 µg/mL; MIC ([1]; CDC Antibiotic-Resistant Bank No. 0299): 1 µg/mL; MIC ([1]; CDC Antibiotic-Resistant Bank No. 0300): 2 µg/mL; MIC ([1]; CDC Antibiotic-Resistant Bank No. 0301): 1 µg/mL; MIC ([1]; CDC Antibiotic-Resistant Bank No. 0302): 1 µg/mL; MIC ([1]; CDC Antibiotic-Resistant Bank No. 0303): 1 µg/mL; MIC ([1]; CDC Antibiotic-Resistant Bank No. 0304): 0.5 µg/mL; MIC ([1]; CDC Antibiotic-Resistant Bank No. 0305): 0.5 µg/mL; MIC ([1]; CDC Antibiotic-Resistant Bank No. 0306): 0.5 µg/mL; MIC ([1]; CDC Antibiotic-Resistant Bank No. 0307): 1 µg/mL; MIC ([1]; CDC Antibiotic-Resistant Bank No. 0308): 1 µg/mL; MIC ([1]; CDC Antibiotic-Resistant Bank No. 0309): 1 µg/mL; MIC ([1]; CDC Antibiotic-Resistant Bank No. 0310): 0.5 µg/mL; MIC ([1]; CDC Antibiotic-Resistant Bank No. 0311): 0.5 µg/mL; MIC ([1]; CDC Antibiotic-Resistant Bank No. 0312): 0.5 µg/mL; MIC ([1]; CDC Antibiotic-Resistant Bank No. 0313): 0.5 µg/mL; MIC ([2]; Bank No. 0112, Klebsiella pneumoniae): 1 µg/mL; MIC ([2]; Bank No. 0113, Klebsiella pneumoniae): 1 µg/mL; MIC ([2]; Bank No. 0114, Escherichia coli): 0.5 µg/mL; MIC ([2]; Bank No. 0115, Klebsiella pneumoniae): 1 µg/mL; MIC ([2]; Bank No. 0116, Citrobacter freundii): 0.5 µg/mL; MIC ([2]; Bank No. 0117, Klebsiella pneumoniae): 0.5 µg/mL; MIC ([2]; Bank No. 0118, Escherichia coli): 0.5 µg/mL; MIC ([2]; Bank No. 0119, Escherichia coli): 0.5 µg/mL; MIC ([2]; Bank No. 0120, Klebsiella pneumoniae): 0.25 µg/mL; MIC ([2]; Bank No. 0121, Serratia marcescens): > 8 µg/mL; MIC ([2]; Bank No. 0122, Serratia marcescens): > 8 µg/mL; MIC ([2]; Bank No. 0123, Serratia marcescens): > 8 µg/mL; MIC ([2]; Bank No. 0124, Serratia marcescens): > 8 µg/mL; MIC ([2]; Bank No. 0125, Klebsiella pneumoniae): 1 µg/mL; MIC ([2]; Bank No. 0126, Klebsiella pneumoniae): 1 µg/mL; MIC ([2]; Bank No. 0127, Salmonella Senftenberg): 0.5 µg/mL; MIC ([2]; Bank No. 0128, Escherichia coli): 0.5 µg/mL; MIC ([2]; Bank No. 0129, Klebsiella pneumoniae): 1 µg/mL; MIC ([2]; Bank No. 0130, Serratia marcescens): > 8 µg/mL; MIC ([2]; Bank No. 0131, Serratia marcescens): > 8 µg/mL; MIC ([2]; Bank No. 0132, Enterobacter cloacae group): 1 µg/mL; MIC ([2]; Bank No. 0134, Raoultella ornithinolytica): 1 µg/mL; MIC ([2]; Bank No. 0135, Klebsiella pneumoniae): 0.5 µg/mL; MIC ([2]; Bank No. 0136, Enterobacter cloacae): 0.5 µg/mL; MIC ([2]; Bank No. 0137, Escherichia coli): 0.25 µg/mL; MIC ([2]; Bank No. 0138, Klebsiella pneumoniae): 0.5 µg/mL; MIC ([2]; Bank No. 0139, Klebsiella pneumoniae): 1 µg/mL; MIC ([2]; Bank No. 0140, Klebsiella pneumoniae): 0.5 µg/mL; MIC ([2]; Bank No. 0141, Klebsiella pneumoniae): 0.5 µg/mL; MIC ([2]; Bank No. 0142, Klebsiella pneumoniae): 0.5 µg/mL; MIC ([2]; Bank No. 0143, Klebsiella pneumoniae): 0.5 µg/mL; MIC ([2]; Bank No. 0144, Kluyvera ascorbata): 0.25 µg/mL; MIC ([2]; Bank No. 0145, Klebsiella pneumoniae): 1 µg/mL; MIC ([2]; Bank No. 0146, Klebsiella pneumoniae): 1 µg/mL; MIC ([2]; Bank No. 0147, Klebsiella oxytoca): 1 µg/mL; MIC ([2]; Bank No. 0148, Klebsiella pneumoniae): 1 µg/mL; MIC ([2]; Bank No. 0149, Escherichia coli): 0.5 µg/mL; MIC ([2]; Bank No. 0150, Escherichia coli): 0.25 µg/mL; MIC ([2]; Bank No. 0151, Escherichia coli): 0.25 µg/mL; MIC ([2]; Bank No. 0152, Klebsiella pneumoniae): 1 µg/mL; MIC ([2]; Bank No. 0153, Klebsiella pneumoniae): 0.5 µg/mL; MIC ([2]; Bank No. 0154, Enterobacter cloacae): 0.25 µg/mL; MIC ([2]; Bank No. 0155, Proteus mirabilis): 0.25 µg/mL; MIC ([2]; Bank No. 0156, Proteus mirabilis): 0.5 µg/mL; MIC ([2]; Bank No. 0157, Citrobacter freundii): 0.5 µg/mL; MIC ([2]; Bank No. 0158, Klebsiella pneumoniae): 0.5 µg/mL; MIC ([2]; Bank No. 0159, Proteus mirabilis): 0.25 µg/mL; MIC ([2]; Bank No. 0160, Klebsiella pneumoniae): 1 µg/mL; MIC ([2]; Bank No. 0161, Enterbacter aerogenes): 2 µg/mL; MIC ([2]; Bank No. 0162, Escherichia coli): 0.25 µg/mL; MIC ([2]; Bank No. 0163, Enterobacter cloacae): 0.25 µg/mL; MIC ([2]; Bank No. 0164, Enterobacter cloacae complex): 1 µg/mL; MIC50 [2, 4]: 0.5 µg/mL; MIC90 [2, 4]: 1 µg/mL; MIC ([3]; Bank No. 0346, Escherichia coli): 0.25 µg/mL; MIC ([3]; Bank No. 0347, Klebsiella pneumoniae): 0.5 µg/mL; MIC ([3]; Bank No. 0348, Escherichia coli): 0.5 µg/mL; MIC ([3]; Bank No. 0349, Escherichia coli): 1 µg/mL; MIC ([3]; Bank No. 0350, Escherichia coli): 1 µg/mL; MIC ([3]; Bank No. 0493, Escherichia coli): 0.5 µg/mL; MIC ([3]; Bank No. 0494, Escherichia coli): 1 µg/mL; MIC ([3]; Bank No. 0495, Escherichia coli): 1 µg/mL; MIC ([3]; Bank No. 0497, Klebsiella pneumoniae): 0.5 µg/mL; MIC ([3]; Bank No. 0538, Escherichia coli): 1 µg/mL; MIC ([3]; Bank No. 0637, Citrobacter freundi): 1 µg/mL; MIC50 [3, 5]: 0.5 µg/mL; MIC90 [3, 5]: 1 µg/mL; MIC (Salmonella typhimurium): 2 µg/mL
